Experimental findings from article PMC9532951, “Identification and characterization of a novel SNAT2 (SLC38A2) inhibitor reveals synergy with glucose transport inhibition in cancer cells” (Frontiers in Pharmacology, 2022) are described below.

Common to all, as to format: cell-based, human
Test [1] deals with MDA-MB-231 cells. In words: Growth assay (IncuCyte confluence), MDA-MB-231. More on the design: key to Growth (Figure 6A) / cell confluence (Figure 6F): % confluence. To be noted: MDA-MB-231; CB-839 10uM; replicates 1-3. The protocol: (§1) Cells were seeded on 96-well flat bottom plates at approximately 3000 cells/well and incubated in growth medium (DMEM/F12 supplemented with 10% FBS, 2 mM glutamine) for 24 h. The next day, the growth medium was aspirated and exchanged with 300 μL/well of growth medium containing compounds at the indicated concentration. For live cell analysis, plates were placed in the IncuCyte system (Essen Bioscience), which was housed in a cell incubator (37°C, humidified atmosphere composed of 95% air and 5% CO2) and confluence measured at 6-h intervals or at the assay endpoint when untreated control cells reached a confluency >90%. Antibiotics (10 U/mL penicillin and 10 μg/ml streptomycin) were included in the treatment solutions.
(§2) Growth curves were generated using the Gompertz function of OriginPro software: y=ae^−e^(−k(x−xc))
(§3) Where a is the maximum confluence or upper asymptote, k is the growth rate coefficient, xc is the time point at which 50% confluence is reached (inflection point) and e is Euler’s number. Cell growth data are shown as % confluence.
(§4) Synergism between drug combinations was quantified using ZIP synergy scoring as calculated by SynergyFinder ([Yadav et al., 2015]).

The subject of test [2] is HPAFII cells. The experiment in a line: Growth assay (IncuCyte confluence), HPAFII. Details: key to Growth (Figure 6A) / cell confluence (Figure 6F): % confluence. To be noted: CB-839 10uM, replicates 1-3. The protocol: as §1, §2, §3, §4
The subject of test [3] is SNAT1 and SNAT2. The experiment in a line: FMP assay: inhibition of glutamine-induced membrane depolarisation in amino acid depleted HCC1806 cells. Conditions: FMP assay, top hit compounds from the HTS, 9-point dose-response, n = 6. On the procedure:
The FLIPR Membrane Potential Blue Explorer Kit (Molecular Devices) was used to characterise inhibitors and to optimise a high-throughput compound screen. Cells were seeded at approximately 60,000 cells/well on a 96-well plate and allowed to attach and grow overnight in a cell incubator. […] Cells were then washed once with mHBSS and incubated with 50 µl of the mHBSS-resuspended FMP assay dye and 50 µl of mHBSS (with or without inhibitors) and incubated at room temperature for 30 min. The plate was then placed in an EnSpire Multimode plate reader (PerkinElmer) and four sequential measurements of fluorescence were recorded as a baseline reference. Immediately after the baseline measurements were taken, 25 µl of 5 mM glutamine dissolved in mHBSS was injected into each well and the plate was shaken orbitally for 5 s before a series of consecutive fluorescence measurements were taken. The excitation wavelength was set to 530 nm and the emission was detected at 565 nm. The Δ fluorescent signal reported in the figures was taken 30 s after substrate addition. After the assay was complete, the liquid content of the plate was carefully removed, and the cell monolayer inspected to ensure it remained intact throughout the course of the assay.
IC50 were calculated using equation y=ymax(1−x/x+IC50)

Several values for one entry are separate records, joined by “and”; a condition that tells them apart may be missing. Equal entries are not always repeated.

Take `O=C(Cc1cccc(OC(F)(F)F)c1)Nc1ccc(CCCCc2nnc(NC(=O)Cc3ccccn3)s2)nn1` [CB-839]: the “cell confluence (Figure 6F)” value is 98.45 and 98.5 (2×) in test [1]; 88.1 and 96.7 and 88.9 in test [2].
Broadly, the IC50 is the point on the concentration scale where inhibition reaches its midpoint. `C#Cc1cccc(NC(=O)N2CC(S(=O)(=O)N3CCN(C(=O)OC(C)(C)C)CC3)C2)c1` [Compound 55_G] had a half-maximal inhibitory concentration (IC50) in test [3] of 83.5 µM.
`CCN1CCN(Cc2nn(-c3ccc(C)c(Cl)c3)c(N)c2-c2ccccc2)CC1` [Compound 55_A]: the IC50 in test [3] amounted to 3.84 µM.
In the case of `Cc1sc2nc(CN3CCC(C)CC3)nc(N3CCC(C)CC3)c2c1C` [Compound 56_C], the IC50 in test [3] was found to be 18.4 µM.
Same read-out and setting: to `COC(=O)c1ccc(C(=O)N2CCc3sccc3C2c2ccccc2)s1` (stereo not drawn) [Compound 57_C] belongs 114 µM.
